Assay results published in US20180346995A1, “Process for Exploiting Synthetic Lethality Based on OverExpression of MYC Oncogene” (priority 2017, published 2018).

Columns and labels:
[1] = tested on: IMR-90 cells expressing MycER; assay: Cell death on acute activation of MYC (MycER + 4-OHT), IMR-90; assay type: cell-based, human; conditions: IMR-90 MycER, 3 days; for cell death, agent alone: single agent
Description: (§1) Cell viability was determined by the trypan blue exclusion assay. Each column represents the average of 3 independent experiments, and each experiment was done in triplicate. Error bars represent one standard deviation. FIG. 1(B) illustrates the cytotoxicity of H-1152 for normal cells and a MYC-overexpressing human cancer cell line IM-9. H-1152 was applied to the indicated cells at 6 μM for 3 days. Cell viability, was determined by the trypan blue exclusion assay. A representative experiment is shown. […] Rat1A cells harboring either an empty vector or various indicated oncogenes were treated with either 0.1% DMSO or 6 μM H-1152 for 3 days. Cell viability was determined by the trypan blue exclusion assay. Each column represents the average of 3 independent experiments, and each experiment was done in triplicate. Error bars represent one standard deviation. […] Rat (Rat1A) or human (HA1E and IMR-90) cells expressing either MycER or MycNER were incubated with or without 6 μM H-1152 and/or 200 nM 4-OHT for 3 days. Cell viability was determined by the trypan blue exclusion assay. A representative experiment is shown.
(§2) In order to negate the possibility that sustained expression of MYC gene has given rise to unidentified targets affected by H-1152, sensitivity of H-1152 in acutely activated cells was measured. Acute activation of MYC was exploited by means of a MYC-estrogen receptor chimera. This receptor is rapidly activated by the addition of 4-hydroxy-tamoxifen (“4-OH”). […] FIG. 1D. A similar experiment was conducted with acute activation of the MYCN gene. MYCN shares high sequence similarity and crucial biochemical and genetic activities with MYC. […] Accordingly, H-1152 elicits MYC-dependent cell lethality irrespective of whether MYC is constitutively expressed or acutely activated. Furthermore, this sensitivity holds true for both fibroblasts cells and epithelial cells.

[2] = tested on: HA1E cells expressing MycER; assay: Cell death on acute activation of MYC (MycER + 4-OHT), HA1E; assay type: cell-based, human; conditions: 3 days; for cell death, agent alone: single agent
Description: as §1, §2

RPE-MYC cells [3] = assay: Trypan blue exclusion cell viability assay in RPE-MYC cells; assay type: cell-based, human; conditions: 72 hours
Description: as §1
FIG. 3(B) illustrates how H-1152, but not other inhibitors of ROCK kinases, preferentially kills RPE-MYC cells. […] Cell viability was determined by the trypan blue exclusion assay. […]

RPE-NEO cells = assay: Trypan blue exclusion cell viability assay in RPE-NEO cells; assay type: cell-based, human; conditions: 6 μM H-1152, 3 days
Description: as §1
In order to confirm that H-1152 elicits cytotoxicity in cells overexpressing MYC, human retinal pigment epithelial cells were stably transfected with either MYC or a Neomycin selection marker gene (“NEO”) in combination with hTERT. […]

IM-9 cells = assay: Trypan blue exclusion cell viability assay in IM-9 cells; assay type: cell-based, human; conditions: IM-9, 6 μM, 3 days
Description: as §1
(§3) The result after 3-days treatment were similar. […] The one observed exception is the IM-9 cells that overexpress MYC. Cell lethality in the IM-9 cell line was approximately 30% after H-1152 treatment for 3 days. FIG. 1B.

[4] = tested on: normal cells and immortalized cells; assay: Trypan blue exclusion cell viability assay in normal and immortalized cells; assay type: cell-based; conditions: 6 μM, 3 days
Description: as §1, §3

[5] = tested on: Rat1A cells expressing MYC or other oncogenes; assay: Trypan blue exclusion cell viability assay in Rat1A cells harboring various oncogenes; assay type: cell-based, rat; conditions: 6 μM, 3 days
Description: as §1
To determine whether cytotoxicity by H-1152 is dependent on MYC-expression or any oncogene, rat 1A cells expressing MYC as well as other active cellular oncogenes were evaluated for lethality. […] FIG. 1C.

[6] = tested on: cells expressing MYCN-estrogen receptor chimera; assay: Cell death on acute activation of MYCN (MycNER + 4-OHT); assay type: cell-based; conditions: MYCN-ER activated with 4-OHT, H-1152 application
Description: as §1
In order to negate the possibility that sustained expression of MYC gene has given rise to unidentified targets affected by H-1152, sensitivity of H-1152 in acutely activated cells was measured. Acute activation of MYC was exploited by means of a MYC-estrogen receptor chimera. […]

RPE-MYC cells [7] = assay: Apoptosis assays (immunofluorescence, Mitotracker) in RPE-MYC cells; assay type: cell-based, human; conditions: 6 μM
Description: RPE-MYC cells were exposed to 6 μM H-1152 for 48 hours and then incubated for 30 minutes with 40 nM MITOTRACKER Red (Molecular Probes) and fixed. Fixed cells were stained for DNA with DAPI (in blue) and then analyzed with a confocal laser microscope. Arrowheads indicate apoptotic nuclei. Scale bar, 10 μm. See Appendix A—for Immunofluorescence Microscopy method. […] RPE-MYC and RPE-NEO cells were treated with 0.1% DMSO or 6 μM H-1152 for 3 days and then subjected to the indicated assays. Each column represents the average of 3 independent experiments, and each experiment was done in triplicate. Error bars represent one standard deviation.
FIG. 2B. […] FIB 2A. […]
Cells are cultured on coverslips in a 6-well plate, fixed with 4% paraformaldehyde or 4% paraformaldehyde followed with methanol treatment, and then permeabilized with 0.3% Triton X-100. […] Primary antibodies are detected with Texas red-conjugated or fluorescein isothiocyanate-conjugated secondary antibodies that may be purchased from Jackson ImmunoResearch. […]
For determination of mitochondrial membrane potential, cells are cultured on cover slips and exposed for 30 min at 37° C. with 40 nM Mitotracker# Red CMXRos (Molecular Probes), a dye that accumulates in mitochondria as a function of the mitochondrial potential. […] For fluorescence detection, an EVOS FL auto microscope (THERMO FISHER) can be used.

[8] = tested on: Myc^high human cancer cell lines; assay: Cytotoxicity in Myc^high human cancer cell lines (trypan blue); assay type: cell-based; conditions: 6 μM, 4 days
Description: (§4) FIG. 5. illustrates that MYC abundance is a univariate predicator of the response of human tumor cell lines to H-1152 by showing the cytotoxicity of H-1152 for 75 human cancer cell lines. Cell lines in the Myc^high group and the Myc^low group were treated for four days with either 0.1% DMSO or 6 μM H-1152. Cell viability was then determined by the trypan blue exclusion assay. FIG. 5(A) is a histogram representing the average of two independent experiments. […] Results are presented as the percentage of dead cells in the presence of H-1152 minus that in the presence of DMSO. Red, yellow and green dots represent cell lines with abundant Myc, MycN and L-Myc respectively. Comparison of the two data sets with two-sided Mann-Whitney test indicates p<0.0001.
(§5) The Myc^high group also includes 8 cell lines with abundant MycN expression and 3 cell lines abundantly expressing L-Myc. […] (FIG. 5 A, B). The difference between the two data sets was statistically significant.

[9] = tested on: Myc^low human cancer cell lines; assay: Cytotoxicity in Myc^low human cancer cell lines (trypan blue); assay type: cell-based; conditions: Myc^low group, 6 μM, 4 days
Description: as §4, §5

[10] = tested on: NCI-H524 xenograft tumors; assay: Xenograft tumor growth in athymic mice, NCI-H524; assay type: in vivo; conditions: Myc^high NCI-H524, 60 mg/kg oral gavage twice a day
Description: (§6) FIG. 7. illustrates how H-1152 elicits therapeutic efficacy against tumorigenesis of cancer cells that overexpress MYC. […] Extracts from four human cancer cell lines (1. NCI-H524, 2. NCI-H841, 3. NCI-H211, 4. NCI-H2199) were blotted for MYC and tubulin by Western blotting. […] See Appendix D for Method of Mouse In Vivo Assay. Two Myc^high cell lines and two Myc^low cell lines were implanted subcutaneously into athymic mice (One to ten millions of cells per injection). When tumors reached approximately 50-70 mm^3, tumor-bearing mice were randomized to receive oral gavage with either vehicle of H-1152 (60 mg/kg body weight per injection) twice a day until the endpoint. The tumor volume was determined at the indicated time points.
(§7) To determine whether tissue culture results can be replicated in vivo, two cell lines from Myc^High group, namely NCI-H841 and NCI-H524, and two cell lines from Myc^low group, namely NCI-H211 and NCI-H2199. […]
(§8) Experimental mice are housed and treated according to the protocol approved by the Institutional Animal Care and Use Committee of MBICR. […] Tumor diameter at injection sites are monitored at the indicated time points with a digital caliper and the volume calculated using the formula: V (mm3)=A×B×B/2, where A and B represent the largest and smallest diameters of the tumor respectively.

[11] = tested on: NCI-H841 xenograft tumors; assay: Xenograft tumor growth in athymic mice, NCI-H841; assay type: in vivo; conditions: Myc^high NCI-H841, 60 mg/kg oral gavage twice a day
Description: as §6, §7, §8

[12] = tested on: NCI-H2199 xenograft tumors; assay: Xenograft tumor growth in athymic mice, NCI-H2199; assay type: in vivo; conditions: Myc^low NCI-H2199, 60 mg/kg oral gavage twice a day
Description: as §6, §7, §8

[13] = tested on: NCI-H211 xenograft tumors; assay: Xenograft tumor growth in athymic mice, NCI-H211; assay type: in vivo; conditions: Myc^low NCI-H211, 60 mg/kg oral gavage twice a day
Description: as §6, §7, §8

ROCKII = ROCKII (Homo sapiens, UniProt O75116); conditions: cited from earlier work
[14] = 6 μM H-1152 together with 200 nM 4-OHT

Chain of ROCKII (O75116 whole entry, species assumed): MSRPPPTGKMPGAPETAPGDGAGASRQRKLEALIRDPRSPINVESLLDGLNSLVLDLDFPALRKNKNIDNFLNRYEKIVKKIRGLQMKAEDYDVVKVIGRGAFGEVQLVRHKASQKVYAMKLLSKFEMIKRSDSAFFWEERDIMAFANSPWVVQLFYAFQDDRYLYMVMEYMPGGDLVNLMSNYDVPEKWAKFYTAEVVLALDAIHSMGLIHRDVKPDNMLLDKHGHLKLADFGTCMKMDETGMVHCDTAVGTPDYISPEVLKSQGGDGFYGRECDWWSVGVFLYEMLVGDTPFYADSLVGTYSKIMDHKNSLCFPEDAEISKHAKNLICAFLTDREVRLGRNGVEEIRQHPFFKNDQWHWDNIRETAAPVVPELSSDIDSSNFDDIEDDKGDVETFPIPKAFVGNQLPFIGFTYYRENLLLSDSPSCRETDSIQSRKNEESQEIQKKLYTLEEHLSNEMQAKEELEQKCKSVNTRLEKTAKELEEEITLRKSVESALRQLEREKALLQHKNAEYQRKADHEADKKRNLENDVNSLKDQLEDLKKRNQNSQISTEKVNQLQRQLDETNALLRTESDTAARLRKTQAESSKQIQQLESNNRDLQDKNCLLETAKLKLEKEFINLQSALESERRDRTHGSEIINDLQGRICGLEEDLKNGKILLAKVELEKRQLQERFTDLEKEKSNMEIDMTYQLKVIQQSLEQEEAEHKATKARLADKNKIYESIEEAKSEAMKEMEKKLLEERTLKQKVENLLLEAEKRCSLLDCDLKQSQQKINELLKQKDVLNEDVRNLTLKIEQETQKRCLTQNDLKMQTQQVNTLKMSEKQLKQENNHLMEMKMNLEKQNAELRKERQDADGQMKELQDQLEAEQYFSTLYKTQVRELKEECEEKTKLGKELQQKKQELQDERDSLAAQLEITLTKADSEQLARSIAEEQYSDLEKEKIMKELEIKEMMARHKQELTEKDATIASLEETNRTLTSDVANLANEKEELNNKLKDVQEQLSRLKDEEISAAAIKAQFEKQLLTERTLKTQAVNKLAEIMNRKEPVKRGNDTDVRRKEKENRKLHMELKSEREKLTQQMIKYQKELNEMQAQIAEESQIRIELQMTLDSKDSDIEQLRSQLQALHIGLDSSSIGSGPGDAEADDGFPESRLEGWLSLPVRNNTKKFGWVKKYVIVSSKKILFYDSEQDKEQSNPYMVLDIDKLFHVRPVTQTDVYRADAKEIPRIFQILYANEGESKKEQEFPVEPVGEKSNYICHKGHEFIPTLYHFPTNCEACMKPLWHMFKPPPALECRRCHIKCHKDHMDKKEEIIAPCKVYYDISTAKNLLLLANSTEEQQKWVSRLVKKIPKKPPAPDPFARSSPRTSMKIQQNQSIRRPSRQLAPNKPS

For 4-hydroxy-tamoxifen [4-OH], the “cell death, agent alone” value [1] was “low levels of cell death” and the “cell death, agent alone” value [2] was “low levels of cell death”.
In the case of Cc1cncc2cccc(S(=O)(=O)N3CCCNC[C@@H]3C)c12 [H-1152, dimethylfasudil], the cell lethality (RPE-MYC cells [3]; 6 μM H-1152 + 100 μM z-VAD-fmk) is reported as 15%, the “cell death in comparison of ROCK inhibitors” value (RPE-MYC cells [3]) is reported as “significant cell death” and the cells killed (RPE-NEO cells) is reported as “none”. The cell lethality (IM-9 cells) was “approximately 30%”, the cell toxicity [4] was “negligible effect on cell toxicity” and the “cell death among cells with various active oncogenes” value [5] was “only MYC expressing cells demonstrated cell death”. For the same compound, the cell lethality [1, 14] was “over 30%”, the “cell death, agent alone” value [1] was “low levels of cell death” and the cell lethality [2, 14] was “over 30%”. For the same compound, the “cell death, agent alone” value [2] was “low levels of cell death”, the cell lethality [6] was “high cell lethality” and the “mitochondria-dependent apoptosis pathway events (membrane potential, cytochrome C release, caspase 9)” value (RPE-MYC cells [7]; 48 hours) was “cell death via activation of the mitochondria-dependent apoptosis pathway”. For the same compound, the “apoptotic features (nuclear condensation, caspase 3 activation, PARP cleavage)” value (RPE-MYC cells [7]; 3 days) was “Symptoms of classical apoptosis were recorded”, the “cell death across cell lines, Myc^high versus Myc^low” value [8] was “massive cell death in a much higher percentage of cell lines in the Myc^high group” and the “cell lines that failed to undergo apoptosis” value ([8]; Myc^high group) was 11 of the 51. For the same compound, the “cell lines sensitive to H-1152” value [9] was 3 of 24, the tumor development [10] was “stabilized tumor development” and the tumor development [11] was “slowed down tumor development”. For the same compound, the tumor development [12] was “failed to impact tumor development” and the tumor development [13] was “failed to impact tumor development”.
In the case of C[C@H]1CNCCCN1S(=O)(=O)c1cccc2cncc(F)c12 [Rapasudil], the IC50 (ROCKII) is listed as 19 nM.
